Where “and” joins values, the source holds several entries; their conditions need not be identical. Equal values may be shown once. Read-outs that look alike come from different tables or passages of the source.
Columns and labels:
BCRP (S1M180 cells) [1] = biological target: T1, BCRP (S1M180 cells) (Homo sapiens, UniProt Q9UNQ0, R482G); test: Drug accumulation assay in S1M180; assay type: cell-based
T1 construct: endogenous in cells; host or cells: S1M180 (human colon carcinoma, mitoxantrone-selected)
T1 sequence (Q9UNQ0 1-655 R482G): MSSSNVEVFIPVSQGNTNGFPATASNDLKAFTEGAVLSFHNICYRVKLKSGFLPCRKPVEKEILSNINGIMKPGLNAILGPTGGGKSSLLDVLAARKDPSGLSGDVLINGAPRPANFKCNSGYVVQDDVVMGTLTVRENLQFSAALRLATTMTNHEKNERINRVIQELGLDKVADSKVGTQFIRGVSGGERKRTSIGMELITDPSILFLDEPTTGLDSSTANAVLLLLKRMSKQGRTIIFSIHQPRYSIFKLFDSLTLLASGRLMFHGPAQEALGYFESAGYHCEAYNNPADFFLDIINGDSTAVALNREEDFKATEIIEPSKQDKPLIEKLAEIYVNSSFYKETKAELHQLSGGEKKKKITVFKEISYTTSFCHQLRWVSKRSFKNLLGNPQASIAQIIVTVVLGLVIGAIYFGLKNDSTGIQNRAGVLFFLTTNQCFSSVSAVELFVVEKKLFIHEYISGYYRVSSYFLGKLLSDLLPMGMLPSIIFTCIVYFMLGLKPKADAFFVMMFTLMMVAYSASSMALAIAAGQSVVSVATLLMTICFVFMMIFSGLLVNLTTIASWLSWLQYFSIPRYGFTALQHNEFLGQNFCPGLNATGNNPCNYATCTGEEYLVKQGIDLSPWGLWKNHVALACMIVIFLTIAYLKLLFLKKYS
Method: (§1) Figure 2 Effect of Ac15(Az8)2 on intracellular accumulation of BCRP-substrates in S1 and S1M180 cells. Cells were pre-treated with 0.1% DMSO, 100 nM, or 1000 nM Ac15(Az8)2 and then incubated with BCRP substrates. (A) Topotecan accumulation. (B) DOX accumulation. The intracellular level of drug after treatment was normalized to that of S1 cells after incubating with 0.1% DMSO. Student unpaired two-tailed t-test was conducted as indicated (** p < 0.01, *** p < 0.001). (C) To measure DOX efflux, S1M180 cells were pre-incubated with medium containing 20 μM DOX for 1 h at 37 °C. Cells were then washed and further incubated with or without 1 µM of Ac15(Az8)2. At 0, 5, 10, 30, 60, 120, and 180 min, the cells were harvested to measure the intracellular DOX level. (D) To determine intracellular Ac15(Az8)2 concentration, 1 × 10^7 cells were incubated with 1 µM of Ac15(Az8)2 at 37 °C for 2 h. Cells were then washed with ice-cold PBS. To the cell pellet, acetonitrile was added to lyse the cells, and the supernatant was saved for Ac15(Az8)2 determination using UPLC–MS/MS.
Briefly, 1 × 10^6 cells of S1 and S1M180 cells were pre-incubated with 100 nM or 1000 nM Ac15(Az8)2 for 2 h and followed by 50 µM of topotecan or 20 µM of DOX for 1-h incubation. DMSO at 0.1% was used as a negative control. After incubation, the cells were spun down and washed with cold PBS, pH7.4 for 2 times and lysed with 100 μL of lysis buffer (0.75 M HCl, 0.2% Triton-X100 in isopropanol) with vigorous vortex. The lysate was further incubated at 37 °C for 20 min. After incubation, the lysate was spun down, and 100 μL of supernatant was saved and seeded into a black 96-well microtiter plate. The fluorescence level of DOX was determined by a fluorescence microplate reader (BMG Technologies) using excitation and an emission wavelength pair of 460 nm and 610 nm.

BCRP (S1M180 cells) [2] = biological target: T1, BCRP (S1M180 cells); test: Cell proliferation (MTS) assay: reversal of BCRP-mediated topotecan/DOX resistance in S1M180; assay type: cell-based
Method: In total, 6500 cells of S1M180 or MCF7-MX100 were incubated with various doses of topotecan or DOX and modulators. The final volume in each well of 96-well plates was 200 µL. The plates were then incubated for 5 days at 37 °C. The CellTiter 96 AQueous Assay (Promega) was used to measure cell proliferation. According to the manufacturer’s instructions, MTS (2 mg/mL) and PMS (0.92 mg/mL) were mixed in a ratio of 20:1. An aliquot (10 μL) of the freshly prepared MTS/PMS mixture was added into each well, and the plate was incubated for 2 h at 37 °C. Optical absorbance at 490 nm was then recorded with microplate absorbance reader (Bio-Rad). IC50 values were calculated from the dose-response curves of MTS assays (Prism 4.0).

S1 cells = test: Drug accumulation assay in S1; assay type: cell-based, human; settings: non-BCRP overexpressing S1 cells; 100 nM or 1000 nM
Method: as §1, with “To the cell pellet, acetonitrile was added to lyse the cells, and the supernatant was saved for Ac15(Az8)2 determination using UPLC–MS/MS.” left out
Briefly, 1 × 10^6 cells of S1 and S1M180 cells were pre-incubated with 100 nM or 1000 nM Ac15(Az8)2 for 2 h and followed by 50 µM of topotecan or 20 µM of DOX for 1-h incubation. […] The fluorescence level of DOX was determined by a fluorescence microplate reader (BMG Technologies) using excitation and an emission wavelength pair of 460 nm and 610 nm.

BCRP = biological target: T2, BCRP (Homo sapiens, UniProt Q9UNQ0, R482G); test: Intracellular Ac15(Az8)2 level in S1 and S1M180 (BCRP substrate test, UPLC-MS/MS); assay type: cell-based
T2 construct: endogenous in cells; host or cells: S1M180 (human colon carcinoma, mitoxantrone-selected)
T2 sequence (Q9UNQ0 1-655 R482G): T1 sequence (Q9UNQ0 1-655 R482G)
Method: as §1
BCRP is an efflux transporter with broad substrate selectivity. In order to study whether Ac15(Az8)2 is itself a substrate of BCRP, its intracellular level was measured after treating the S1 or S1M180 cells for 2 h.

S1 xenograft = test: In vivo efficacy in parental S1 xenograft; design: species or system Balb/c nu nu mice; settings: four times (700% without treatment)
Description: (A) S1 xenograft. (B) S1M180 xenograft. There were 3 treatment groups in S1 and S1M180 xenograft model. Treatments were given as indicated by an arrow (↑). % of tumor volume reduction was compared among different treatment groups on days 55 and 71. a, b, and c = mean tumor volume of solvent control, topotecan alone, and combination treatment groups on day 55, respectively. d and e = mean tumor volume of topotecan alone and combination treatment groups on day 71. (C) Tumor weight of S1M180-bearing mice on termination day. (D) % change of tumor volume and tumor doubling time of S1M180 xenograft were determined on days 55 and 71. […] Number of animal death was monitored during the efficacy study. (E) Body weight of S1M180-bearing mice. (F) To measure plasma and intratumor level of topotecan, S1M180-bearing mice were administered with 45 mg/kg (I.P.) of Ac15(Az8)2 one hour prior to 6 mg/kg (I.P.) of topotecan administration. Five hours after topotecan administration, the mice were sacrificed. Plasma and tumor were collected for analyzing topotecan level using UPLC–MS/MS. Student’s unpaired two-tailed t-test was performed between combination group and topotecan alone group or solvent control group as indicated (* p < 0.05, ** p < 0.01, *** p < 0.001).

[3] = 100 nM or 1000 nM Ac15(Az8)2, 2 h pre-incubation

Row | Compound | Effect on DOX accumulation in S1M180 (BCRP (S1M180 cells) [1]; [3]) | Effect on topotecan accumulation in S1M180 (BCRP (S1M180 cells) [1]; [3]) | EC50 (BCRP (S1M180 cells) [2]; HEK293/R2, MCF7-MX100 and S1M180, summary of Table 2, read-out: EC50 for reversing topotecan and DOX resistance in three BCRP-overexpressed cell lines (range)) [nM] | EC50 (BCRP (S1M180 cells) [2]; concentration reducing IC50 of anticancer drug by half, mean ± S.D., n = 3–4, read-out: EC50 needed for reversing BCRP-mediated DOX resistance, S1M180) | EC50 (BCRP (S1M180 cells) [2]; concentration reducing IC50 of anticancer drug by half, mean ± S.D., n = 3–4, read-out: EC50 needed for reversing BCRP-mediated topotecan resistance, S1M180) [nM] | EC50 (BCRP (S1M180 cells) [2]; range over DOX and topotecan resistance of Table 2, read-out: EC50 for reversing resistance in S1M180 (range)) [nM] | Effect on DOX accumulation in S1 (S1 cells) | Effect on topotecan accumulation in S1 (S1 cells) | Intracellular level of Ac15(Az8)2 in S1M180 higher than in S1 (BCRP; 1 µM, 2 h, 37 °C) | Transport substrate of BCRP (BCRP; from intracellular levels in S1 vs S1M180) | Xenograft volume on the 11th day (S1 xenograft; topotecan 2 mg/kg + 45 mg/kg Ac15(Az8)2 I.P. every other day) [%] | Topotecan accumulation in S1M180, fold less than parental S1 (BCRP (S1M180 cells) [1]; 50 µM topotecan, 1 h, p < 0.01) | Xenograft volume on the 11th day (S1 xenograft; topotecan alone 2 mg/kg I.P. every other day) [%]
1 | COC(=O)c1cccc(COc2c(-c3ccc(OCCOCCn4cc(CN(Cc5ccccc5)Cc5cn(CCOCCOc6ccc(-c7oc8ccccc8c(=O)c7OCc7cccc(C(=O)OC)c7)cc6)nn5)nn4)cc3)oc3ccccc3c2=O)c1 [Ac15(Az8)2] | increase the accumulation | increase the accumulation | 3 to 72 | 56 nM and 56.1 nM | 72 ± 12 | 56 to 72 | did not affect | did not affect | about 20% | not a transport substrate of BCRP | 200 |  | 
2 | CC[C@@]1(O)C(=O)OCc2c1cc1n(c2=O)Cc2cc3c(CN(C)C)c(O)ccc3nc2-1 [topotecan] |  |  |  |  |  |  |  |  |  |  |  | about 2.1 fold | 200

— PMC9653733, “Characterization of a Potent, Selective, and Safe Inhibitor, Ac15(Az8)2, in Reversing Multidrug Resistance Mediated by Breast Cancer Resistance Protein (BCRP/ABCG2)” (International Journal of Molecular Sciences, 2022)
